# Measurements taken from ChEMBL document CHEMBL3046712, “Molecular simulations of bergenin as a new urease inhibitor” (Med Chem Res, 2012).
# Experiments:
# [1] = (§1) Inhibition of Sporosarcina pasteurii urease using urea as substrate after 15 min
# [2] = test system: Sporosarcina pasteurii; test: as §1
inhibition [2] [%],Compound,IC50 [1] [µM]
78,COc1c(O)cc2c(c1O)[C@@H]1O[C@H](CO)[C@@H](O)[C@H](O)[C@H]1OC2=O [BERGENIN],21.7
–,NC(N)=S [THIOUREA],25
